# Patent US20240398989A1, “METHODS AND COMPOSITIONS FOR DIAGNOSIS AND TREATMENT OF METABOLIC DISORDERS” (The Broad Institute, Inc., priority 2021, published 2024)
# Test system: primary human hepatocytes (PHH)
# Test: LipocyteProfiler of drug-treated primary human hepatocytes
# Format: cell-based
# Conditions: for appearance of the cytoskeleton, Golgi and plasma membrane (AGP Texture_AngularSecondMoment): 5 mM metformin for 24h vs control, p=9.96e-08
# Description: Primary human hepatocytes (PHH) were purchased from BioIVT. Donor lot YNZ was used in this study. PHH were thawed and immediately resuspended in CP media (BioIVT) supplemented with torpedo antibiotic (BioIVT). Cell count and viability were assessed by trypan blue exclusion test prior to plating. […] Four hours after plating, media was replaced with fresh CP media. After 24 h, media was replaced with fresh CP media or CP media containing oleic acid (0.3 mM) or metformin (5 mM). Hepatocytes were incubated for an additional 24 h prior to processing. Human primary AMSCs and PHH were plated in 96-well CellCarrier plates (Perkinelmer #6005550). […] Primary human hepatocytes were stained after 48 h in culture, and 24h following treatment with oleic acid or metformin. On the respective day of the assay, cell culture media was removed and replaced by 0.5 μM Mitotracker staining solution (1 mM MitoTracker Deep Red stock (Invitrogen #M22426) diluted in culture media) to each well followed by 30 minutes incubation at 37° C.' protected from light. […] PFA was removed and cells were washed once with Hank's Balanced Salt Solution (1×), HBSS (Gibco #14025076). […] Finally, staining solution was removed and cells were washed three times with HBSS. Cells were imaged using a Opera Phenix High content screening system. […] Prior to processing, flat field illumination correction was performed using functions generated from the median intensity across each plate. Nuclei were identified using the DAPI stain and then expanded to identify whole cells using the Phalloidin/WGA and BODIPY stains. Regions of cytoplasm were then determined by removing the Nuclei from the Cell segmentations. Speckles of BODIPY staining were enhanced to assist in detection of small and large individual Lipid objects. For each object set measurements were collected representing size, shape, intensity, granularity, texture, colocalization and distance to neighbouring objects. After LipocyteProfiler (LP) feature extraction data was filtered by applying automated and manual quality control steps. […] Second, every field was assessed visually and fields that were corrupted by experimental induced technical artifacts were removed. Furthermore, blocklisted features (Way, Gregory (2019): Blocklist Features-Cell Profiler. figshare. […] After filtering data were normalised per plate using a robust scaling approach (Pedregosa et al. 2011) that subtracts the median from each variable and divides it by the interquartile range. Individual wells were aggregated for downstream analysis by cell depot and day of differentiation.
# [1] = PHH metformin treatment (5 mM, 24h), t-test
smiles,measurement,setting,value
CN(C)C(=N)N=C(N)N [metformin],Nuclei_Intensity_IntegratedIntensityEdge_AGP t-statistics,[1],−8.2E+00
same,Nuclei_Intensity_IntegratedIntensityEdge_DNA t-statistics,[1],−1.8E+01
same,Nuclei_Intensity_IntegratedIntensityEdge_Mito t-statistics,[1],5.3E+00
same,Nuclei_Intensity_IntegratedIntensity_DNA t-statistics,[1],−1.3E+01
same,Nuclei_Intensity_IntegratedIntensity_Lipid t-statistics,[1],−5.7E+00
same,Nuclei_Intensity_IntegratedIntensity_Mito t-statistics,[1],7.3E+00
same,Nuclei_Intensity_LowerQuartileIntensity_AGP t-statistics,[1],−1.4E+01
same,Nuclei_Intensity_LowerQuartileIntensity_DNA t-statistics,[1],−1.9E+01
same,Nuclei_Intensity_LowerQuartileIntensity_Lipid t-statistics,[1],−5.4E+00
same,Nuclei_Intensity_LowerQuartileIntensity_Mito t-statistics,[1],7.7E+00
same,Nuclei_Intensity_MADIntensity_AGP t-statistics,[1],−2.2E+01
same,Nuclei_Intensity_MADIntensity_DNA t-statistics,[1],4.7E+00
same,Nuclei_Intensity_MADIntensity_Mito t-statistics,[1],1.2E+01
same,Nuclei_Intensity_MassDisplacement_AGP t-statistics,[1],1.9E+01
same,Nuclei_Intensity_MassDisplacement_DNA t-statistics,[1],6.2E+01
same,Nuclei_Intensity_MassDisplacement_Lipid t-statistics,[1],2.6E+01
same,Nuclei_Intensity_MassDisplacement_Mito t-statistics,[1],1.2E+01
same,Nuclei_Intensity_MaxIntensityEdge_AGP t-statistics,[1],−8.0E+00
same,Nuclei_Intensity_MaxIntensityEdge_DNA t-statistics,[1],−1.3E+01
same,Nuclei_Intensity_MaxIntensityEdge_Mito t-statistics,[1],3.3E+00
same,Nuclei_Intensity_MaxIntensity_AGP t-statistics,[1],−1.6E+01
same,Nuclei_Intensity_MaxIntensity_Mito t-statistics,[1],3.5E+00
same,Nuclei_Intensity_MeanIntensityEdge_AGP t-statistics,[1],−8.2E+00
same,Nuclei_Intensity_MeanIntensityEdge_DNA t-statistics,[1],−1.6E+01
same,Nuclei_Intensity_MeanIntensityEdge_Mito t-statistics,[1],5.2E+00
same,Nuclei_Intensity_MeanIntensity_AGP t-statistics,[1],−1.6E+01
same,Nuclei_Intensity_MeanIntensity_DNA t-statistics,[1],−9.5E+00
same,Nuclei_Intensity_MeanIntensity_Lipid t-statistics,[1],−4.6E+00
same,Nuclei_Intensity_MeanIntensity_Mito t-statistics,[1],7.8E+00
same,Nuclei_Intensity_MedianIntensity_AGP t-statistics,[1],−1.7E+01
same,Nuclei_Intensity_MedianIntensity_DNA t-statistics,[1],−1.3E+01
same,Nuclei_Intensity_MedianIntensity_Lipid t-statistics,[1],−4.5E+00
same,Nuclei_Intensity_MedianIntensity_Mito t-statistics,[1],8.9E+00
same,Nuclei_Intensity_MinIntensityEdge_AGP t-statistics,[1],−7.5E+00
same,Nuclei_Intensity_MinIntensityEdge_DNA t-statistics,[1],−1.6E+01
same,Nuclei_Intensity_MinIntensityEdge_Lipid t-statistics,[1],−8.5E+00
same,Nuclei_Intensity_MinIntensityEdge_Mito t-statistics,[1],3.0E+00
same,Nuclei_Intensity_MinIntensity_AGP t-statistics,[1],−7.8E+00
same,Nuclei_Intensity_MinIntensity_DNA t-statistics,[1],−1.6E+01
same,Nuclei_Intensity_MinIntensity_Lipid t-statistics,[1],−8.6E+00
same,Nuclei_Intensity_MinIntensity_Mito t-statistics,[1],4.5E+00
same,Nuclei_Intensity_StdIntensityEdge_AGP t-statistics,[1],−7.5E+00
same,Nuclei_Intensity_StdIntensityEdge_DNA t-statistics,[1],−1.0E+01
same,Nuclei_Intensity_StdIntensityEdge_Lipid t-statistics,[1],6.3E+00
same,Nuclei_Intensity_StdIntensityEdge_Mito t-statistics,[1],5.2E+00
same,Nuclei_Intensity_StdIntensity_AGP t-statistics,[1],−1.8E+01
same,Nuclei_Intensity_StdIntensity_DNA t-statistics,[1],3.5E+00
same,Nuclei_Intensity_StdIntensity_Mito t-statistics,[1],6.1E+00
same,Nuclei_Intensity_UpperQuartileIntensity_AGP t-statistics,[1],−1.8E+01
same,Nuclei_Intensity_UpperQuartileIntensity_DNA t-statistics,[1],−5.7E+00
same,Nuclei_Intensity_UpperQuartileIntensity_Lipid t-statistics,[1],−4.4E+00
same,Nuclei_Intensity_UpperQuartileIntensity_Mito t-statistics,[1],8.5E+00
same,Nuclei_Location_CenterMassIntensity_Y_AGP t-statistics,[1],4.1E+00
same,Nuclei_Location_CenterMassIntensity_Y_DNA t-statistics,[1],4.2E+00
same,Nuclei_Location_CenterMassIntensity_Y_Lipid t-statistics,[1],4.1E+00
same,Nuclei_Location_CenterMassIntensity_Y_Mito t-statistics,[1],4.2E+00
same,Nuclei_Location_Center_Y t-statistics,[1],4.2E+00
same,Nuclei_Location_MaxIntensity_Y_AGP t-statistics,[1],4.1E+00
same,Nuclei_Location_MaxIntensity_Y_DNA t-statistics,[1],4.2E+00
same,Nuclei_Location_MaxIntensity_Y_Lipid t-statistics,[1],4.1E+00
same,Nuclei_Location_MaxIntensity_Y_Mito t-statistics,[1],4.5E+00
same,Nuclei_Neighbors_AngleBetweenNeighbors_2 t-statistics,[1],−2.2E+01
same,Nuclei_Neighbors_FirstClosestDistance_2 t-statistics,[1],−3.5E+00
same,Nuclei_Neighbors_FirstClosestObjectNumber_2 t-statistics,[1],−1.2E+01
same,Nuclei_Neighbors_NumberOfNeighbors_2 t-statistics,[1],1.9E+01
same,Nuclei_Neighbors_PercentTouching_2 t-statistics,[1],2.0E+01
same,Nuclei_Neighbors_SecondClosestDistance_2 t-statistics,[1],4.5E+00
same,Nuclei_Neighbors_SecondClosestObjectNumber_2 t-statistics,[1],−1.2E+01
same,Nuclei_Number_Object_Number t-statistics,[1],−1.2E+01
same,Nuclei_Radial Distribution_MeanFrac_Mito_3of4 t-statistics,[1],2.6E+01
same,Nuclei_RadialDistribution_FracAtD_AGP_3of4 t-statistics,[1],−2.7E+01
same,Nuclei_RadialDistribution_FracAtD_DNA_2of4 t-statistics,[1],3.0E+01
same,Nuclei_RadialDistribution_FracAtD_Lipid_1of4 t-statistics,[1],−1.2E+01
same,Nuclei_RadialDistribution_FracAtD_Mito_3of4 t-statistics,[1],2.4E+01
same,Nuclei_RadialDistribution_MeanFrac_AGP_3of4 t-statistics,[1],−2.7E+01
same,Nuclei_RadialDistribution_MeanFrac_DNA_2of4 t-statistics,[1],3.8E+01
same,Nuclei_RadialDistribution_MeanFrac_Lipid_2of4 t-statistics,[1],−7.9E+00
same,Nuclei_RadialDistribution_RadialCV_AGP_3of4 t-statistics,[1],2.5E+01
same,Nuclei_RadialDistribution_RadialCV_DNA_3of4 t-statistics,[1],9.7E+01
same,Nuclei_RadialDistribution_RadialCV_Lipid_3of4 t-statistics,[1],2.2E+01
same,Nuclei_RadialDistribution_RadialCV_Mito_2of4 t-statistics,[1],3.7E+01
same,Nuclei_Texture_AngularSecondMoment_AGP_10_02 t-statistics,[1],1.2E+01
same,Nuclei_Texture_AngularSecondMoment_DNA_20_03 t-statistics,[1],9.4E+00
same,Nuclei_Texture_AngularSecondMoment_Lipid_5_03 t-statistics,[1],4.2E+00
same,Nuclei_Texture_AngularSecondMoment_Mito_5_02 t-statistics,[1],−1.8E+01
same,Nuclei_Texture_Contrast_AGP_10_03 t-statistics,[1],−1.8E+01
same,Nuclei_Texture_Contrast_DNA_5_01 t-statistics,[1],5.8E+00
same,Nuclei_Texture_Contrast_Lipid_20_02 t-statistics,[1],4.3E+00
same,Nuclei_Texture_Contrast_Mito_5_03 t-statistics,[1],6.8E+00
same,Nuclei_Texture_Correlation_AGP_10_03 t-statistics,[1],3.0E+01
same,Nuclei_Texture_Correlation_DNA_10_00 t-statistics,[1],−1.6E+01
same,Nuclei_Texture_Correlation_Lipid_5_03 t-statistics,[1],2.3E+01
same,Nuclei_Texture_Correlation_Mito_5_02 t-statistics,[1],1.5E+01
same,Nuclei_Texture_DifferenceEntropy_AGP_10_00 t-statistics,[1],−2.1E+01
same,Nuclei_Texture_DifferenceEntropy_DNA_10_03 t-statistics,[1],−8.0E+00
same,Nuclei_Texture_DifferenceEntropy_Lipid_20_01 t-statistics,[1],8.2E+00
same,Nuclei_Texture_DifferenceEntropy_Mito_20_00 t-statistics,[1],8.0E+00
same,Nuclei_Texture_DifferenceVariance_AGP_10_00 t-statistics,[1],1.4E+01
same,Nuclei_Texture_DifferenceVariance_DNA_20_03 t-statistics,[1],7.3E+00
same,Nuclei_Texture_DifferenceVariance_Lipid_20_00 t-statistics,[1],5.6E+00
same,Nuclei_Texture_DifferenceVariance_Mito_10_00 t-statistics,[1],−8.1E+00
same,Nuclei_Texture_Entropy_AGP_5_00 t-statistics,[1],−1.7E+01
same,Nuclei_Texture_Entropy_DNA_10_03 t-statistics,[1],−7.7E+00
same,Nuclei_Texture_Entropy_Lipid_20_01 t-statistics,[1],7.3E+00
same,Nuclei_Texture_Entropy_Mito_5_02 t-statistics,[1],1.3E+01
same,Nuclei_Texture_InfoMeas1_AGP_10_03 t-statistics,[1],2.6E+01
same,Nuclei_Texture_InfoMeas1_Lipid_20_03 t-statistics,[1],−8.6E+00
same,Nuclei_Texture_InfoMeas2_DNA_10_03 t-statistics,[1],−1.3E+01
same,Nuclei_Texture_InfoMeas2_Mito_5_01 t-statistics,[1],1.3E+01
same,Nuclei_Texture_InverseDifferenceMoment_AGP_10_00 t-statistics,[1],2.1E+01
same,Nuclei_Texture_InverseDifferenceMoment_DNA_20_03 t-statistics,[1],1.5E+01
same,Nuclei_Texture_InverseDifferenceMoment_Lipid_20_00 t-statistics,[1],7.5E+00
same,Nuclei_Texture_InverseDifferenceMoment_Mito_10_00 t-statistics,[1],−1.4E+01
same,Nuclei_Texture_SumAverage_AGP_10_00 t-statistics,[1],−1.8E+01
same,Nuclei_Texture_SumAverage_DNA_10_01 t-statistics,[1],−1.8E+01
same,Nuclei_Texture_SumAverage_Lipid_10_00 t-statistics,[1],−6.6E+00
same,Nuclei_Texture_SumAverage_Mito_20_00 t-statistics,[1],8.5E+00
same,Nuclei_Texture_SumEntropy_AGP_5_00 t-statistics,[1],−1.9E+01
same,Nuclei_Texture_SumEntropy_DNA_10_03 t-statistics,[1],−7.8E+00
same,Nuclei_Texture_SumEntropy_Lipid_20_01 t-statistics,[1],8.0E+00
same,Nuclei_Texture_SumEntropy_Mito_5_02 t-statistics,[1],1.1E+01
same,Nuclei_Texture_SumVariance_AGP_10_03 t-statistics,[1],−1.7E+01
same,Nuclei_Texture_SumVariance_DNA_5_02 t-statistics,[1],6.2E+00
same,Nuclei_Texture_SumVariance_Lipid_20_01 t-statistics,[1],6.0E+00
same,Nuclei_Texture_SumVariance_Mito_5_02 t-statistics,[1],7.3E+00
same,Nuclei_Texture_Variance_AGP_10_03 t-statistics,[1],−1.8E+01
same,Nuclei_Texture_Variance_DNA_5_00 t-statistics,[1],5.8E+00
same,Nuclei_Texture_Variance_Lipid_20_00 t-statistics,[1],4.7E+00
same,Nuclei_Texture_Variance_Mito_5_02 t-statistics,[1],6.9E+00
same,BODIPY Texture Entropy,"PHH, 5 mM metformin for 24h, p 6.98e-04",difference
same,mitochondrial membrane potential (Mito MeanIntensity),"PHH, 5 mM metformin for 24h, p 0.0104",increased
same,cell size (AreaShape MinorAxislength),"PHH, 5 mM metformin for 24h, p=3.11e-12",smaller
same,cell size (AreaShape Area),"PHH, 5 mM metformin for 24h, p=3.87e-11",smaller
same,lipid droplet number (LargeBODIPYObjects_Count),"PHH, 5 mM metformin for 24h, p=2.37e-07",reduced
same,lipid content (BODIPY MeanIntensity),"PHH, 5 mM metformin for 24h, p=6.11e-06",reduced
same,"mitochondrial fusion (Mito Texture_angularSecondMoment, Mito Texture Entropy, Mito Texture_InfoMeas1)","PHH, 5 mM metformin for 24h, p=7.58e-05, p=6.66e-06, p=2.17e-12",increased
same,"appearance of the cytoskeleton, Golgi and plasma membrane (AGP Texture_AngularSecondMoment)",PHH,less uniform
same,"appearance of the cytoskeleton, Golgi and plasma membrane (AGP Texture_AngularSecondMoment)","PHH, listed as Metformin",reduced cytoskeletal randomness
